From patent US20240368209A1, “GEMCITABINE ANTICANCER DERIVATIVE AND ANTICANCER PHARMACEUTICAL USE” (ASCENTAWITS PHARMACEUTICALS, LTD., priority 2021, published 2024)
Read-outs that look alike come from different tables or passages of the source.

Tested on: H460 non-small cell lung cancer human tumor cell line
Test: In vitro human tumor cell line cytotoxicity (proliferation) assay on H460, CTG, with or without AST-3021
Assay type: cell-based
Details: for IC50: Homo sapiens
Procedure: In vitro human tumor cell line cytotoxicity assay was used.
In vitro proliferation data on the H460 non-small cell lung cancer human tumor cell line (cell line which highly expresses AKR1C3) is reported below in the compound table.
IC50 values were obtained with the following steps:
Specifically, exponentially growing cells were seeded at a density of 2×10^3 cells/100 μL/well in a 96-well plate and incubated at 37° C. in 5% CO2, 95% air and 100% relative humidity for 24 hours. The test compound was administered alone: 24 hours after cell plating, the compound acted alone, 99 μL of growth medium per well was added, and 1 μL of the compound prepared at 200× was added, and the plate was shaken gently to ensure even mixing, then placed into an incubator of 37° C., 5% CO2. After further cultivation for 72 hours, the number of live cells was detected using CTG. The CTG detection method was as follows: the cell plate to be tested was placed at room temperature to equilibrate for 30 minutes, and 100 μL of medium per well was discarded. 25 μL of CTG reagent (CellTiter-Glo® kit) per well was added, and the plate was placed in a high-speed shaker to oscillate for 2 minutes, and placed at room temperature in the dark for 30 minutes. The chemiluminescence signal value was read using a multimode microplate reader, with a read time of 1000 ms.
Similarly, in order to further verify that the compounds were activated by human AKR1C3 (aldosterone reductase family 1 member C3), the effect of some of the compounds on the proliferation of H460 cancer cells was tested with pretreatment with a specific AKR1C3 enzyme inhibitor AST-3021 (3 μM). The detailed experimental procedure was as follows: 24 hours after cell plating, 98 μL of growth medium per well was added, and 1 μL of 200×compound AST-3021 was added to each well, and the plate was shaken gently to ensure even mixing, and then placed into an incubator; after 2 hours, 1 μL of the test compound prepared at 200× was added, and the plate was shaken gently to ensure even mixing and then laced into an incubator of 37° C., 5% CO2. The inhibitor used was compound 36, i.e.
in Flanagan et al., Bioorganic and Medicinal Chemistry (2014), page 962-977, and is referred to as AST-3021 in this invention. The values measured in this case are values corresponding to +AST-3021 IC50 (nM) in Table 1.
The value corresponding to +AST-3021 IC50 (nM) divided by the value corresponding to IC50 (nM) is the specific activation ratio. The relative magnitude of the specific activation ratio can be used to evaluate whether this compound is a cytotoxic compound activated by human AKR1C3 (aldosterone reductase family 1 member C3): when the specific activation ratio is less than 1, it is considered that the compound is not activated by human AKR1C3 (aldosterone reductase family 1 member C3); when the specific activation ratio is greater than 1, it is considered that the compound is activated by human AKR1C3 (aldosterone reductase family 1 member C3), and the higher the value, the higher the activation degree and the selectivity of AKR1C3.

[1] = NCI-H460, compound alone, 72 hours, read-out: IC50
[2] = NCI-H460, pretreatment with AKR1C3 inhibitor AST-3021 (3 μM), read-out: +AST-3021 IC50

SMILES | specific activation ratio (+AST-3021 IC50/IC50) | IC50 [1] [nM] | IC50 [2] [nM]
CCN(CC)P(=O)(OCc1ccc([N+](=O)[O-])c(Oc2ccc(-c3ccc(F)cc3)c(F)c2)c1)OCC1OC(n2ccc(N)nc2=O)C(F)(F)C1O (stereo not drawn) [Compound D2, reference compound] | 45.1 | 96.9 | 4370
Nc1ccn(C2OC(COP(=O)(OCc3ccc([N+](=O)[O-])c(Oc4ccc(-c5ccc(F)cc5)c(F)c4)c3)Oc3ccccc3)C(O)C2(F)F)c(=O)n1 (stereo not drawn) [Compound D6, reference compound] | 0.54 | 20.6 | 11.2
Nc1ccn(C2OC(COP(=O)(OCc3ccc([N+](=O)[O-])c(Oc4ccc(C(F)(F)F)cc4)c3)Oc3ccccc3)C(O)C2(F)F)c(=O)n1 (stereo not drawn) [Compound D7, reference compound] | 0.77 | 50.3 | 38.9
CC(OP(=O)(OCC1OC(n2ccc(N)nc2=O)C(F)(F)C1O)N(C)C)c1ccc([N+](=O)[O-])c(Oc2ccc(-c3ccc(F)cc3)c(F)c2)c1 (stereo not drawn) [Compound D9, reference compound] | 56.5 | 67.8 | 3830
CNP(=O)(OCc1ccc([N+](=O)[O-])c(Oc2ccc(-c3ccc(F)cc3)c(F)c2)c1)OCC1OC(n2ccc(N)nc2=O)C(F)(F)C1O (stereo not drawn) [Compound H1] | 24.2 | 29.4 | 712
CCNP(=O)(OCc1ccc([N+](=O)[O-])c(Oc2ccc(-c3ccc(F)cc3)c(F)c2)c1)OCC1OC(n2ccc(N)nc2=O)C(F)(F)C1O (stereo not drawn) [Compound H2] | 47.8 | 19.9 | 951
Nc1ccn(C2OC(COP(=O)(NCCBr)OCc3ccc([N+](=O)[O-])c(Oc4ccc(-c5ccc(F)cc5)c(F)c4)c3)C(O)C2(F)F)c(=O)n1 (stereo not drawn) [Compound H4] | 6.2 | 5.15 | 31.7
CNP(=O)(OCc1ccc([N+](=O)[O-])c(Oc2ccc(C(F)(F)F)cc2)c1)OCC1OC(n2ccc(N)nc2=O)C(F)(F)C1O (stereo not drawn) [Compound H5] | 4.2 | 117 | 499
CCNP(=O)(OCc1ccc([N+](=O)[O-])c(Oc2ccc(C(F)(F)F)cc2)c1)OCC1OC(C2N=CC(N)=NC2=O)C(F)(F)C1O (stereo not drawn) [Compound H6] | 12.9 | 178 | 2300
CC(C)CNP(=O)(OCc1ccc([N+](=O)[O-])c(Oc2ccc(-c3ccc(F)cc3)c(F)c2)c1)OCC1OC(C2N=CC(N)=NC2=O)C(F)(F)C1O (stereo not drawn) [Compound H7] | 61.3 | 26.8 | 1640
NC1=NC(=O)C(C2OC(COP(=O)(NCc3ccccc3)OCc3ccc([N+](=O)[O-])c(Oc4ccc(-c5ccc(F)cc5)c(F)c4)c3)C(O)C2(F)F)N=C1 (stereo not drawn) [Compound H8] | 44.8 | 67.5 | 3020
NC1=NC(=O)C(C2OC(COP(=O)(NCc3ccccc3)OCc3ccc([N+](=O)[O-])c(Oc4ccc(C(F)(F)F)cc4)c3)C(O)C2(F)F)N=C1 (stereo not drawn) [Compound H9] | 23.2 | 78.2 | 1810
CC(C)CNP(=O)(OCc1ccc([N+](=O)[O-])c(Oc2ccc(C(F)(F)F)cc2)c1)OCC1OC(C2N=CC(N)=NC2=O)C(F)(F)C1O (stereo not drawn) [Compound H10] | 27.7 | 105 | 2900
CCNP(=O)(OCc1ccc([N+](=O)[O-])c(Oc2ccc(C(=O)N3CCCCC3)cc2)c1)OCC1OC(n2ccc(N)nc2=O)C(F)(F)C1O (stereo not drawn) [Compound H13] | 9.4 | 393 | 3680
CCNP(=O)(OCc1ccc([N+](=O)[O-])c(Oc2ccc(C(=O)N3CCC(C(F)(F)F)CC3)cc2)c1)OCC1OC(n2ccc(N)nc2=O)C(F)(F)C1O (stereo not drawn) [Compound H14] | 1.9 | 1770 | 3300
